Laboratory results from patent US20100267712A1, “ISOINDOLINE COMPOUNDS FOR THE TREATMENT OF SPINAL MUSCULAR ATROPHY AND OTHER USES” (The United States of America, as represented by the …, priority 2007, published 2010).

Tested on: SMN2-linked luciferase-reporter gene construct
Assay: SMN Splice Reporter Assay (SMN2-linked luciferase reporter)
Format: cell-based
Conditions: for EC50: cervical carcinoma cell lines, SMN2 splice luciferase reporter; for Fold Increase: fold-increase of luciferase over baseline reading of transformed cells without any test compound
Source text: As previously discussed, SMN1 is the gene deleted in SMA patients; the SMN2 gene remains intact in both SMA and normal patients. Therefore, SMN2 provides a potential means of increasing SMN production in SMA patients and is, thus, a target for developing SMA treatments. SMN2 is identical to SMN1 with the exception of a single base pair change that results in reduced expression of the gene. The reduction is based on the creation of an alternatively spliced RNA that produces an unstable protein carrying a deletion of exon 7. Both full length SMN and exon 7 deleted SMN are produced by the SMN2 gene via alternative RNA splicing, but the major product is the unstable deleted form.
Cervical carcinoma cell lines were transformed with a SMN2-linked luciferase-reporter gene construct. The reporter is designed to detect shifts in the alternative splicing of SMN2 sequences. In particular, the reporter is constructed as a fusion of the alternatively spliced sequences of the SMN2 gene and the luciferase gene. Luciferase sequences are in the correct translational reading frame only when the SMN2 sequences are spliced according to the normal SMN1 mechanism (e.g., splicing to include exon 7), which allows for translation of the stable SMN protein. Compounds were tested in the assay by administering the compound to the cell line and detecting an increase in the luciferase activity. The assay is described in greater detail in Zhang et al., Gene Ther., 8: 1532-8 (2001). Compounds were administered as described in Lunn et al, Chem. & Biol, 11: 1489-1493 (2004).
The results are reported as a fold-increase over a baseline reading of transformed cells without any test compound. The EC50 value also is reported in Table 1 for some exemplary compounds of the invention.

SMILES	EC50 [µM]	Fold Increase
COc1ccc2c(c1)C(=O)N(c1cc3ccn(C)c3cn1)C2 [Example 121792]	0.101	1.384
CCc1ccc2c(c1)C(=O)N(c1ccc3c(ccn3C)c1)C2 [Example 121793]	0.085	1.529
COc1ccc2c(c1)C(=O)N(c1ccc3c(c1)NCCN3)C2 [Example 121921]	0.217	1.365
CCCCOc1ccc2c(c1)C(=O)N(c1ccc3c(ccn3C)c1)C2 [Example 121922]	0.225	1.301
CC(C)Oc1ccc2c(c1)C(=O)N(c1ccc3c(ccn3C)c1)C2 [Example 121923]		1.194
Cn1ccc2cc(N3Cc4ccc(F)cc4C3=O)ccc21 [Example 121925]	0.193	1.347
COc1cc2c(cc1F)CN(c1ccc3c(ccn3C)c1)C2=O [Example 121926]	0.199	1.533
CC(C)Cc1ccc2c(c1)C(=O)N(c1ccc3c(ccn3C)c1)C2 [Example 121927]	0.036	1.323
CCCCc1ccc2c(c1)C(=O)N(c1ccc3c(ccn3C)c1)C2 [Example 121928]	0.148	1.384
Cn1ccc2cc(N3Cc4ccc(OC5CCCC5)cc4C3=O)ccc21 [Example 121929]	0.083	1.316
Nc1ccc2c(c1)C(=O)N(c1ccc3ccsc3c1)C2 [Example 122036]	0.347	1.827
Cn1ccc2cc(N3Cc4ccc(C(F)(F)F)cc4C3=O)ccc21 [Example 122037]	0.862	1.406
CN(C)c1ccc2c(c1)C(=O)N(c1ccc3ccsc3c1)C2 [Example 122038]	0.038	1.592
COc1ccc2c(c1)C(=O)N(c1ccc3nc(N(C)C)ncc3c1)C2 [Example 122039]	7.12	1.459
COc1ccc(-c2ccc3c(c2)C(=O)N(c2ccc4c(ccn4C)c2)C3)cc1 [Example 122040]		1.148
C/C=C(/C)c1ccc2c(c1)C(=O)N(c1ccc3c(ccn3C)c1)C2 [Example 122041]	0.076	1.606
Cn1ccc2cc(N3Cc4ccc(-c5cncnc5)cc4C3=O)ccc21 [Example 122181]		1.169
COc1ccc2c(c1)C(=O)N(c1ccc3c(c1)CCN3C)C2 [Example 122314]		1.026
COc1ccc(-c2ccc3c(c2)C(=O)N(c2ccc4ccn(C)c4c2)C3)cc1 [Example 122315]		1.091

Continued, in another order:

EC50 [µM]	SMILES	Fold Increase
0.728	Cn1ccc2cc(N3Cc4ccc(-c5cccnc5)cc4C3=O)ccc21 [Example 122042]	1.422
0.54	Cn1ccc2cc(N3Cc4ccc(OCC(F)(F)F)cc4C3=O)ccc21 [Example 122043]	1.341
0.16	COc1ccc2c(c1)C(=O)N(c1ccc3c(c1)c(Br)cn3C)C2 [Example 122044]	1.383
0.092	Cn1ccc2cc(N3Cc4ccc(OC(F)(F)C(F)Cl)cc4C3=O)ccc21 (centres unmarked) [Example 122180]	1.64
0.593	COc1ccc2c(c1)CN(c1ccc3c(ccn3C)c1)C2 [Example 122183]	1.518
0.409	COc1ccc2c(c1)C(=O)N(c1ccc3c(c1)c(C)cn3C)C2 [Example 122184]	1.639
0.065	Cn1ccc2cc(N3Cc4cc(F)ccc4C3=O)ccc21 [Example 122316]	1.401
0.459	Cn1ccc2ccc(N3Cc4ccc(-c5cccnc5)cc4C3=O)cc21 [Example 122318]	1.94
0.203	CN1CCCc2cc(N3Cc4ccc(OC(F)F)cc4C3=O)ccc21 [Example 122319]	1.97
0.086	O=C1c2cc(O)ccc2CN1c1ccc2sccc2c1 [Example 122430]	1.769
